Measured values taken from ChEMBL document CHEMBL5465560, “Selectivity Literature for EUbOPEN Chemogenomic Library” (2024).

Assays:
[1] = target: Serine/threonine-protein kinase Nek6 (Homo sapiens) (UniProt Q9HC98); assay: Selectivity interaction (Kinase panel (KiNativ target engagement assay in Jurkat cells)) EUB0001635a NEK6; type: cell-based; details: Selectivity number of off-targets 0.0, Selectivity number of targets 233.0, Source Knowledge https://www.sciencedirect.com/science/article/pii/S2451945619300674?via%3Dihub, at 1 µM
[2] = target: 5'-AMP-activated protein kinase catalytic subunit alpha-2 (Homo sapiens) (UniProt P54646); assay: Selectivity interaction (KinomeScan (DiscoverX)) EUB0000595a PRKAA2; details: at 10 µM
[3] = target: BDNF/NT-3 growth factors receptor (Homo sapiens) (UniProt Q16620); assay: Selectivity interaction (KinomeScan (DiscoverX)) EUB0000045b NTRK2
[4] = target: T1, Tyrosine-protein kinase Mer (Homo sapiens) (UniProt Q12866); assay: Selectivity interaction (KinomeScan (DiscoverX)) EUB0000695a MERTK; details: at 100 nM
T1 sequence (whole entry): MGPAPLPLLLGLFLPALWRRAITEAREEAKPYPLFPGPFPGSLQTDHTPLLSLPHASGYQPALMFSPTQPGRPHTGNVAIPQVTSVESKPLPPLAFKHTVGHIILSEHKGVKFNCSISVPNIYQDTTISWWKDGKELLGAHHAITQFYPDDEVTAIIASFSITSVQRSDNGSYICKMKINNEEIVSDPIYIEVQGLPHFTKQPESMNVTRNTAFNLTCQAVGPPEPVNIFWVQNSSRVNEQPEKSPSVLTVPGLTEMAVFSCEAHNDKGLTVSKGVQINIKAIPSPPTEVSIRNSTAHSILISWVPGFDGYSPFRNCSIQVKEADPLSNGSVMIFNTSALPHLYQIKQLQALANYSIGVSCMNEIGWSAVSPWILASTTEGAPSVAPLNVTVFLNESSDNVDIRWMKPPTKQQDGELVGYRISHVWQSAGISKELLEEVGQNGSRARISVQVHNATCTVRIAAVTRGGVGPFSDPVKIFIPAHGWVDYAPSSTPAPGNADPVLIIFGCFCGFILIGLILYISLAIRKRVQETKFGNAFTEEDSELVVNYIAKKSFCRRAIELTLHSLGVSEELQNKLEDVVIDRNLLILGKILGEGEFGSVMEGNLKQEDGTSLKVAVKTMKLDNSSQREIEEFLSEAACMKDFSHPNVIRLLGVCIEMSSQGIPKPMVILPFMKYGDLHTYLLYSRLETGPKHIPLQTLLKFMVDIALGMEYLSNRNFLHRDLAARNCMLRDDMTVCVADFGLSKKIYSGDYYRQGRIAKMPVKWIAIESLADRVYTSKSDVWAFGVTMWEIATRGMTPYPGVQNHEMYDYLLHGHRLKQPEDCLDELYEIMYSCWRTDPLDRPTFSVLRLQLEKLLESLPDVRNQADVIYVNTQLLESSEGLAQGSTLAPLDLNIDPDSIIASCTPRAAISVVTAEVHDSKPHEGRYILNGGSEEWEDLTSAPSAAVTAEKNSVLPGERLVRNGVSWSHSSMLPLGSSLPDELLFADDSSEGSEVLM

[5] = target: Macrophage colony-stimulating factor 1 receptor (Homo sapiens) (UniProt P07333); assay: Selectivity interaction (Kinase panel (Z-LYTE Assay)) EUB0001632a CSF1R; details: at 10 µM
[6] = target: Serine/threonine-protein kinase PLK2 (Homo sapiens, UniProt Q9NYY3); assay: Selectivity interaction (KinomeScan (DiscoverX)) EUB0000666a PLK2; details: at 10 µM
[7] = target: Serine/threonine-protein kinase SIK2 (Homo sapiens) (UniProt Q9H0K1); assay: Selectivity interaction (KinomeScan (DiscoverX)) EUB0001049a SIK2; details: at 1 µM
[8] = target: Serine/threonine-protein kinase tousled-like 2 (Homo sapiens) (UniProt Q86UE8); assay: Selectivity interaction (ActivX KiNativ screen (ex vivo kinase selectivity in human PBMCs)) EUB0001619a TLK2; type: cell-based; details: PBMC, at 1 µM
[9] = target: Serine/threonine-protein kinase 10 (Homo sapiens) (UniProt O94804); assay: Selectivity interaction (Kinase panel (DSF assay)) EUB0001489b STK10
[10] = target: STE20/SPS1-related proline-alanine-rich protein kinase (Homo sapiens) (UniProt Q9UEW8); assay: Selectivity interaction (KinomeScan (DiscoverX)) EUB0000607a STK39; details: at 10 µM
[11] = target: Interferon-induced, double-stranded RNA-activated protein kinase (Homo sapiens) (UniProt P19525); assay: Selectivity interaction (KinomeScan (DiscoverX)) EUB0000607a EIF2AK2; details: at 10 µM
[12] = target: Serine/threonine-protein kinase 38-like (Homo sapiens) (UniProt Q9Y2H1); assay: Selectivity interaction (ActivX KiNativ screen (kinase selectivity in THP-1 cell lysates)) EUB0000639a STK38L; type: subcellular; details: lysate, at 0.01 µM

Chain of BDNF/NT-3 growth factors receptor (Homo sapiens) (Q16620 32-822 limits assumed): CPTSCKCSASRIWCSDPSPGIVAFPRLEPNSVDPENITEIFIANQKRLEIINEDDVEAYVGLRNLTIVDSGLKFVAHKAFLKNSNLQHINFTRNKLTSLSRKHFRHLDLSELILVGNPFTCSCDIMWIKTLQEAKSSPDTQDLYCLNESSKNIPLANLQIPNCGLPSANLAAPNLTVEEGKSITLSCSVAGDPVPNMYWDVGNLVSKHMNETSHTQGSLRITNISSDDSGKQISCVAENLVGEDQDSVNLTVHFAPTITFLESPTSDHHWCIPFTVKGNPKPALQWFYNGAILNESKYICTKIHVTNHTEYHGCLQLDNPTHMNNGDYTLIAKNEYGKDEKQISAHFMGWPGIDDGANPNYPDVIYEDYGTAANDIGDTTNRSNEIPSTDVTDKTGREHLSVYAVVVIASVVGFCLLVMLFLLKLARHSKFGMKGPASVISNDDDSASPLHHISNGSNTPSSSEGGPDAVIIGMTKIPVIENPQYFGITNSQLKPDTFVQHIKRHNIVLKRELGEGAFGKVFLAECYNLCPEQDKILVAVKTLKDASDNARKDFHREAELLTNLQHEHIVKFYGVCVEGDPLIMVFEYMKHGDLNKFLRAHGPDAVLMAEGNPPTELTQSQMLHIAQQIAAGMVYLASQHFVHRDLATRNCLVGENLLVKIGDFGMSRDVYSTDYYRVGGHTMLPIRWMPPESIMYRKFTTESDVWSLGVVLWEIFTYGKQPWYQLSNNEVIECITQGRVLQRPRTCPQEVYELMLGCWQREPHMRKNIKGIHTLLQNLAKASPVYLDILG
Chain of Serine/threonine-protein kinase Nek6 (Homo sapiens) (Q9HC98 whole entry): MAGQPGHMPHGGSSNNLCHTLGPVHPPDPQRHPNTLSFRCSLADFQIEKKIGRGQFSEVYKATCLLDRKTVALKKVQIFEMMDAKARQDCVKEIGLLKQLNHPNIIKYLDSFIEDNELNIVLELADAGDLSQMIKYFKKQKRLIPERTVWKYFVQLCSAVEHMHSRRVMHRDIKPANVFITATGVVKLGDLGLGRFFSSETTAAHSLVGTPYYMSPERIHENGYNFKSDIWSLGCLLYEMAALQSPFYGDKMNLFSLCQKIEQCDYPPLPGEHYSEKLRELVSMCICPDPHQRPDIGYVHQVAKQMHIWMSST
Chain of Serine/threonine-protein kinase SIK2 (Homo sapiens) (Q9H0K1 whole entry, looked up): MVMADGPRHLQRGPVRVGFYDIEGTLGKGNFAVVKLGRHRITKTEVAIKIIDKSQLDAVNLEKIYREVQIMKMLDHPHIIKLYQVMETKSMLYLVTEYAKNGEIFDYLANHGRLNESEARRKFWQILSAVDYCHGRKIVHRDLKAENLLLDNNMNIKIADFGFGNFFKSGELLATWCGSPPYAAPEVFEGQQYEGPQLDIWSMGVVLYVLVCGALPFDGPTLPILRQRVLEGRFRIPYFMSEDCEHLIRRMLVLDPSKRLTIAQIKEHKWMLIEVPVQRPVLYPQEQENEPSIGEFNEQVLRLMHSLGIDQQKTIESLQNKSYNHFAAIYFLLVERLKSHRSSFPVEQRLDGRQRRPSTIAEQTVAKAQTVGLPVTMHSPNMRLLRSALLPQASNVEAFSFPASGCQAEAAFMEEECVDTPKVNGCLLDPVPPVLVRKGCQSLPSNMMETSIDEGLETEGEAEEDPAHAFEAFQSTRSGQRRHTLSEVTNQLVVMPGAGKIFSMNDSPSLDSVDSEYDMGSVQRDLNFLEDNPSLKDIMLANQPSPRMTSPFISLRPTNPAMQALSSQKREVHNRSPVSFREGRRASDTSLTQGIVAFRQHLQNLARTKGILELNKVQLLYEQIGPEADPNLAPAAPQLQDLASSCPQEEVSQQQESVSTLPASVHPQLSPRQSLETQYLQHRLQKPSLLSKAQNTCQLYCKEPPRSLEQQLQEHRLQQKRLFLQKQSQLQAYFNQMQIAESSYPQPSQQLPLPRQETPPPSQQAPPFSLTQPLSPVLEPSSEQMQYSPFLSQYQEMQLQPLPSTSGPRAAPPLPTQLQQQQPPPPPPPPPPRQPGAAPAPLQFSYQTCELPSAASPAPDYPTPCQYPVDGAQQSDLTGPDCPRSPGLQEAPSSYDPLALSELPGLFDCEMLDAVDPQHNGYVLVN
Chain of Serine/threonine-protein kinase 10 (Homo sapiens) (O94804 whole entry, looked up): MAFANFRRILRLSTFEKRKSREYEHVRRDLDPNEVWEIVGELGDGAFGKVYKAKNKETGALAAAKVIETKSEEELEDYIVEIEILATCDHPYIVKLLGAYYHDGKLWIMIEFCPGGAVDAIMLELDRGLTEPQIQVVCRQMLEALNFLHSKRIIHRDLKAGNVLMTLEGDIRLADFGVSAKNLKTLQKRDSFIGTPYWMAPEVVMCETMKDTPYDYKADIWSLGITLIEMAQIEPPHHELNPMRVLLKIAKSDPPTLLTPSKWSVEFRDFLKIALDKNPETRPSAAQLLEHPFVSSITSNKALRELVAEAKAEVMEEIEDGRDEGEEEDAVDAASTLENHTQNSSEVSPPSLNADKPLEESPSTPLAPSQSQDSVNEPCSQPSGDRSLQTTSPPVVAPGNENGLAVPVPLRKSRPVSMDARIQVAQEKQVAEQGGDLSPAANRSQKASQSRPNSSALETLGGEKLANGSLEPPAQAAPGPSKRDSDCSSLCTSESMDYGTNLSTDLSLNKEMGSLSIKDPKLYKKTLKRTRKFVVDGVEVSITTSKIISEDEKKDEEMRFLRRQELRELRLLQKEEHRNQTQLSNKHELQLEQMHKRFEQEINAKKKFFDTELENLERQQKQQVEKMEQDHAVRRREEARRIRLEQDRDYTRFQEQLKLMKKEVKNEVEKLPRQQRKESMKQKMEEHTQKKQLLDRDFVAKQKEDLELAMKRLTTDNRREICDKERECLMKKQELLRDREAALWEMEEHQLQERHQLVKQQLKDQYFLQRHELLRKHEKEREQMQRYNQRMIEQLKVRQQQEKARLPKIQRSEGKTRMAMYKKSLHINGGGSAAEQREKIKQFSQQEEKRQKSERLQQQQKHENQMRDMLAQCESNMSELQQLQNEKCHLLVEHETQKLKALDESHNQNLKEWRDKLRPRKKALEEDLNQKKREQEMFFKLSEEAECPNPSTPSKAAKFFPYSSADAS
Chain of Serine/threonine-protein kinase PLK2 (Q9NYY3 whole entry, looked up): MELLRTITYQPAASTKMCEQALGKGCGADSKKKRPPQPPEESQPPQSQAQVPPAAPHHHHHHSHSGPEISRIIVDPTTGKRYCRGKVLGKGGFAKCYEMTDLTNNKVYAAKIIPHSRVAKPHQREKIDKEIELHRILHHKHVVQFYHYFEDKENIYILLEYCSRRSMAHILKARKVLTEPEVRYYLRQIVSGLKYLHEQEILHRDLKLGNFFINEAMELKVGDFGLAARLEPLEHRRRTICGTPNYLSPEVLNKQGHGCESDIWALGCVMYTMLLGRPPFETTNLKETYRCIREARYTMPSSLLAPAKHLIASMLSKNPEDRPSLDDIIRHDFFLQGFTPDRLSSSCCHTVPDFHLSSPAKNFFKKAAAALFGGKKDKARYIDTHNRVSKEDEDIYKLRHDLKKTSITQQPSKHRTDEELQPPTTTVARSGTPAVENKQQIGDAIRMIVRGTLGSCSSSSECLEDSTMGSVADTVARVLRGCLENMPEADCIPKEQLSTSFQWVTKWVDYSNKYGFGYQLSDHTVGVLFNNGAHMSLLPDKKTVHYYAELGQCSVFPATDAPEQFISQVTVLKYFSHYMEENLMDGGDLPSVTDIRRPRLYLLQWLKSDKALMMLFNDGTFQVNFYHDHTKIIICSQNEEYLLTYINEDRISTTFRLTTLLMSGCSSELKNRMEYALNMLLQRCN
Chain of Interferon-induced, double-stranded RNA-activated protein kinase (Homo sapiens) (P19525 whole entry): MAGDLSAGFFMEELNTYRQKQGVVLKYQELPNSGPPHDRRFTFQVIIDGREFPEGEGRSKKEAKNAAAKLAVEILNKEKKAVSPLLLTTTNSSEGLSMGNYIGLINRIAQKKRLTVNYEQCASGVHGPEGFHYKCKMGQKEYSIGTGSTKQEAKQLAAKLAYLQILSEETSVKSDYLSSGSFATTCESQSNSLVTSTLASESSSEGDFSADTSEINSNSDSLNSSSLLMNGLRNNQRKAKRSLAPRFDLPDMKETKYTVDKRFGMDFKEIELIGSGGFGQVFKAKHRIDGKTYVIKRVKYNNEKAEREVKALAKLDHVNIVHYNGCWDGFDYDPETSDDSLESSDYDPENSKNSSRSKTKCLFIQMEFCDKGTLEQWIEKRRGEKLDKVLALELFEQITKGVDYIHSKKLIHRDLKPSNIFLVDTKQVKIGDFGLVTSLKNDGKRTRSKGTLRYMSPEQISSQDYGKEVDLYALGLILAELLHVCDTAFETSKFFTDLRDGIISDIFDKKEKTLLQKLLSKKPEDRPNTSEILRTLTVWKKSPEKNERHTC
Chain of 5'-AMP-activated protein kinase catalytic subunit alpha-2 (Homo sapiens) (P54646 whole entry, looked up): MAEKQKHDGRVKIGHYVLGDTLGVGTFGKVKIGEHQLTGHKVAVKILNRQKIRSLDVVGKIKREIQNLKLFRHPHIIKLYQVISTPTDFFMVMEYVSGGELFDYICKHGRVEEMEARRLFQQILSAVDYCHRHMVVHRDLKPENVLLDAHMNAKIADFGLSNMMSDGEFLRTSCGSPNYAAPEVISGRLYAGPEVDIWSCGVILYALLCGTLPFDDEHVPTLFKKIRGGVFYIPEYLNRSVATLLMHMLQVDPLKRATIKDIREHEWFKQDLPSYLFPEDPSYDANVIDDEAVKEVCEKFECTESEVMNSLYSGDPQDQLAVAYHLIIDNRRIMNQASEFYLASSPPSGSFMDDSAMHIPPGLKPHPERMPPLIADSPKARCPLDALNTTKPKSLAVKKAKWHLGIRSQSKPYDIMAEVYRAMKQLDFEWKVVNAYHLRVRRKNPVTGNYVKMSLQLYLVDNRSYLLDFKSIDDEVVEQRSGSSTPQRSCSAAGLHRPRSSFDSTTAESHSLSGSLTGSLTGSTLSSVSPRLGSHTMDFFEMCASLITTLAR

`C=CC(=O)Nc1ccc(C(=O)Nc2[nH]nc3c2CN(C(=O)N[C@H](CN(C)C)c2ccccc2)C3(C)C)cc1` gave a % of engagement [1] of 2.3%.
Work on `COCC(=O)NC/C=C/c1ccc2ncnc(Nc3ccc(Oc4ccc(C)nc4)c(C)c3)c2c1` [CP-724714] yielded a % of control [2] of 100%.
`C=CC(=O)Nc1cc(-n2c(=O)ccc3cnc4ccc(-c5ccc(NS(C)(=O)=O)cc5)cc4c32)ccc1C` showed a % of control ([3]; at 1 µM) of 62% and a % of control ([3]; at 10 µM) of 78%.
Molecule `Cc1cc(F)c(C(=O)Nc2cccc(-c3nncn3C(C)C)n2)cc1-n1cnc(C2CC2)c1` has a % of control [4] of 99%.
Work on `Cn1cc(-n2cnc3c(NCc4nc5cc(Cl)c(Cl)cc5[nH]4)nc(N4CCOCC4)nc32)cn1` yielded a % of control [5] of 20%.
`O=C(NOC[C@H](O)CO)c1ccc(F)c(F)c1Nc1ccc(I)cc1F` gave a % of control [6] of 100%.
`COc1cc(Nc2nc(C)cc(-c3cnn4nc(OC)ccc34)n2)cc(C(F)(F)F)c1` gave a % of control [7] of 100%.
Work on `N#Cc1cccc(-c2c[nH]c3ncnc(N4CCOCC4)c23)c1` yielded a % of inhibition [8] of 6%.
With `CN1CCN(C(=O)c2ccc3cc2OCCOCCNc2ccn4ncc-3c4n2)CC1` the dTM [9] was 2.3 K.
Molecule `CNC(=O)Nc1ccc(-c2nc(N3CC4CCC(C3)O4)c3cnn(C4CCC5(CC4)OCCO5)c3n2)cc1` has a % of control [10] of 100% and a % of control [11] of 100%.
Molecule `CC[C@@H]1[C@H](F)C(=O)N[C@@H]1COc1nccc2cc(C(N)=O)c(OC)cc12` [ZIMLOVISERTIB] has a % of inhibition [12] of 2.6%.
